SMILES strings stand for the structures. Entries after “also recorded” stand apart in the source; their conditions may differ. Where only a bound is given, the exact number is not on record here.

Assay [1] deals with monoclonal antibodies of the present invention (anti-11 dhTxB2 / 11 dh2,3dTxB2 mAb). Kind of assay: Monoclonal antibody specificity: percent cross-reactivity (enzyme-based competition assay). Type of assay: binding, mouse. Conditions: for % Reactivity (cross reactivity): relative to 11 dh TxB2 = 100%. The method, then:
The present invention provides a urinary 11dhTxB2 Competitive ELISA Assay. An illustrative standard curve was prepared (see FIG. 6) by spiking known amounts of 11dhTxB2 into low level urine diluted 1:5 in Tris assay buffer (0.1M Tris, 0.1% BSA) or into assay buffer alone. 100 μl of standards or actual samples (having taken known amounts of aspirin and diluted 1:5 in Tris assay buffer) was added to wells coated with goat anti-mouse antibody, followed by the addition of 50 μl of 11 dhTxB2-AP (alkaline phosphatase) tracer and 50 μl of 11 dhTxB2 mAb. The reactions were then allowed to incubate for a predetermined amount of time, typically with shaking at room temperature. In preferred embodiments the incubation is about two hours in length. Each well is then washed with a wash buffer and approximately 200 μl of substrate added (p-nitrophenyl-phosphate, pNPP). The reactions are then incubated again for approximately thirty minutes. A stop solution is added to each well, and the plate read for OD at 405 nm.
Antibody clones of the invention were tested to determine cross-reactivity against various Thromboxane A2 metabolites and other like compounds. Table 2 provides percent cross reactivity of antibodies of the present invention against these various compounds: […]

Assay [2] has as its system urinary 11dhTxB2 (TxA2 metabolites). Kind of assay: Urinary 11dhTxB2 competitive ELISA in subjects on aspirin. Type of assay: in vivo, human. Conditions: for urinary 11dhTxB2 per mg creatinine, average patient value: healthy no-aspirin average 1119 pg/mg. The protocol:
The present invention provides a urinary 11dhTxB2 Competitive ELISA Assay. An illustrative standard curve was prepared (see FIG. 6) by spiking known amounts of 11dhTxB2 into low level urine diluted 1:5 in Tris assay buffer (0.1M Tris, 0.1% BSA) or into assay buffer alone. 100 μl of standards or actual samples (having taken known amounts of aspirin and diluted 1:5 in Tris assay buffer) was added to wells coated with goat anti-mouse antibody, followed by the addition of 50 μl of 11 dhTxB2-AP (alkaline phosphatase) tracer and 50 μl of 11 dhTxB2 mAb. The reactions were then allowed to incubate for a predetermined amount of time, typically with shaking at room temperature. In preferred embodiments the incubation is about two hours in length. Each well is then washed with a wash buffer and approximately 200 μl of substrate added (p-nitrophenyl-phosphate, pNPP). The reactions are then incubated again for approximately thirty minutes. A stop solution is added to each well, and the plate read for OD at 405 nm. Results from the assay provide for the amount of 11dhTxB2 and 11 dh2,3dTxB2 present in the sample (note that results are compared to the standard curve). The amount of the two metabolites present in the sample is indirectly proportional to the optical density read at 405 nm. For clinical samples, creatinine values are also obtained, and data from assays presented as pg metabolite/mg creatinine. Initially, 171 urine samples were taken from subjects either off aspirin or on 81 or 325 mg aspirin/day. TxA2 metabolite amounts were determined for each sample using the methods and kits of the present invention. Values were normalized for urinary dilution by dividing TxA2 metabolite amounts by creatinine concentrations. 354 urine samples from subjects either on or off aspirin therapy were run using the methods and kits of the present invention. Values were calculated and normalized for urinary dilution by dividing by creatinine concentration, and the frequency of each concentration was calculated and shown in a frequency plot, FIG. 5. Subjects on aspirin are plotted with solid bars and subjects not on aspirin are plotted using hatched bars. Positive samples are below 1500 pg/mg creatinine cutoff, whereas negative samples are those that are above the 1500 pg/mg creatinine cutoff. As shown in FIGS. 4-5, clinical data can be obtained using the above-described methods. […] The assay detection range was suitable for measurement of 11dhTxB2 in a population (62-3122 pg 11dhTxB2/mg creatinine—see FIG. 7). […] All three levels of aspirin doses are statistically significant when compared to the healthy, no aspirin controls.

The conditions of assay [3]: low dose aspirin; patients with arterial vascular disease; cited from earlier work.
The target of a further assay is T1, platelet COX-1 (Homo sapiens, UniProt P23219).
T1 construct: host or cells: platelets (in vivo, patients on low dose aspirin)
Conditions: low dose aspirin; cited from earlier work.

Where [4] appears, read: aspirin ingestion present, 354 urine samples in total.

T1 sequence (P23219 24-599): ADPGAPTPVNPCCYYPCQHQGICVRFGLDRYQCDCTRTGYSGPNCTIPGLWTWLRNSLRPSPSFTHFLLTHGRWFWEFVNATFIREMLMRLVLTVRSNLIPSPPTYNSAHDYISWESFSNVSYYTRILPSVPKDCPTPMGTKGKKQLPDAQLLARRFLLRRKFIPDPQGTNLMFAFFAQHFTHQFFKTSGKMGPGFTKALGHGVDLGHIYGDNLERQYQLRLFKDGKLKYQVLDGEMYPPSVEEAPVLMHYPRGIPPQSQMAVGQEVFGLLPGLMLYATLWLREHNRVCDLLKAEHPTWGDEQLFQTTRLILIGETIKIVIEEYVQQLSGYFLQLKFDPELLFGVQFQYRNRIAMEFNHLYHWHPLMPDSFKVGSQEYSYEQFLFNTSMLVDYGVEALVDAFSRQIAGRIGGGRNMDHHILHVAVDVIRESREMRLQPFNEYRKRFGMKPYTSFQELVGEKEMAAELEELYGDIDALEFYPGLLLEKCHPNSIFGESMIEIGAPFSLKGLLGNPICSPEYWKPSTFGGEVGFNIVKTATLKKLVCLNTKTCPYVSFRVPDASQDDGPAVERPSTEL

`CCCCC[C@H](O)/C=C/[C@H]1OC(O)C[C@H](O)[C@@H]1C/C=C\CC(=O)O` (stereo partly shown) [2,3 dinor TxB2]: in assay [1], the “reactivity of the antibodies with the compound (in words)” value (“reactivity of the antibodies” below) was “unreactive” and the “% Reactivity (cross reactivity)” value was 1.93%.
Take `O=C(O)CCCCC(=O)CCC1C(O)CC(=O)C1CCC(=O)O` (stereo not shown) [2,3,4,5-tetranor-20-Carboxy 13,14-dihydro-15-keto PGE2]: in assay [1], the “reactivity of the antibodies” value is “unreactive” and the “% Reactivity (cross reactivity)” value is <0.01%.
The matching figures for `O=C(O)CCCCC(=O)CCC1C(O)CC(O)C1CCC(=O)O` (stereo not drawn) [2,3,4,5-tetranor-20-Carboxy 13,14-dihydro-15-keto PGF2α]: “unreactive” and <0.01%.
Take `CCCCC[C@H](O)/C=C/[C@@H]1[C@@H](CC(=O)CCCCC(=O)O)[C@@H](O)C[C@H]1O` [6-keto PGF1a]: in assay [1], the “reactivity of the antibodies” value is “unreactive” and the “% Reactivity (cross reactivity)” value is recorded as <0.01%.
With `CCCCCC(O)C=CC1OC(=O)CC(O)C1CC=CCCCC(=O)O` (stereo not shown) [11 dh TxB2, 11-dehydro Thromboxane B2], in assay [1], the “reactivity of the antibodies” value is recorded as “react; also recorded: high reactivity” and the “% Reactivity (cross reactivity)” value amounted to 100%.
The like results for `CCCCCC(O)C=CC1OC(=O)CC(O)C1CC=CCC(=O)O` (stereo not shown) [11-dehydro-2,3 dinor thromboxane B2] were, in that order, “react; also recorded: high reactivity” and 166%.
For `CCCCC[C@H](O)/C=C/[C@H]1C(=O)C[C@H](O)[C@@H]1C/C=C\CCCC(=O)O` [PGD2], in assay [1], the “reactivity of the antibodies” value is “unreactive” and the “% Reactivity (cross reactivity)” value is listed as 0.2%.
The like results for `CCCCC[C@H](O)/C=C/[C@H]1[C@H](O)CC(=O)[C@@H]1C/C=C\CCCC(=O)O` [PGE2] were, in that order, “unreactive” and <0.01%.
For the compound `CCCCC[C@H](O)/C=C/[C@H]1OC(O)C[C@H](O)[C@@H]1C/C=C\CCCC(=O)O` (stereo partly shown) [TxB2, thromboxane B2], in assay [1], the “reactivity of the antibodies” value is “unreactive” and the “% Reactivity (cross reactivity)” value worked out at 0.05%.
In the case of `CC(=O)Oc1ccccc1C(=O)O` [aspirin, acetyl salicylic acid], the “urinary 11dhTxB2 per mg creatinine, average patient value” in assay [2] (aspirin 81 mg/day) came out at 418 pg/mg; in assay [2] (aspirin 162 mg/day) it was 471 pg/mg; in assay [2] (aspirin 325 mg/day) it was 377 pg/mg. Besides, in assay [2] (setting [4]), the “number of urine samples Negative (>1500 pg/creatinine)” value worked out at 16. The “number of urine samples Positive (<1500 pg/creatinine)” value in assay [2] (setting [4]) is 251. Also, in assay [3], the “reduction of cardiovascular events” value is on record as ≤ 25%. In addition, on platelet COX-1, the “block of platelet COX-1 activity” value was “more than 95%”.
